We go through one substance from US20180147131A1, “COMPOSITION FOR ORAL CAVITY AND FOOD PRODUCT, OR BEVERAGE” (KABUSHIKI KAISHA SANGI, priority 2015, published 2018).

This test can be described thus: Remineralization test (artificial incipient caries, contact microradiogram, computer image analysis). Details: species or system bovine. The settings on record: conclusion from the remineralization tests of Examples and Comparative Examples. The source says:
In order to confirm the remineralizing effect, a previously made artificial incipient caries test sample was used. For the making of the artificial incipient caries test sample, enamel on the labial surface of the crown portion of a bovine front tooth was used. The enamel surface was abraded with #1000, #2400, and #4000 abrasive paper. A window of about 5×3 mm was made with Nail Enamel (Manufactured by Shiseido Company, Limited) at a site to be tested, on the abraded enamel surface, and immersed in a 0.1 M lactate buffer solution (pH 4.8, 3.0 mmM CaCl2, 1.8 mmM KH2PO4, 1.0% CMC) at 37° C. for 4 days to make artificial incipient caries. […]
The effect of remineralizing the artificial incipient caries site was analyzed using a computer.
In image analysis by the computer, the amount of the remineralized mineral was calculated based on the formula of Angmer et al. (B. Angmer, D. Carlstrom and J. E. Glas: Studies on Ultrastructure of Dental Enemel IV: The Mineralization of normal Human Enamel, J. Ultrastructure. Res. 8, 12-23, 1963), and the amounts of the mineral lost AZ (% volume mineral·μm) at the control surface and treated surface of each section were calculated according to the method of Damato et al. (F. A. Damato, R. Stang and K. W. Stephen: Effect of Fluoride Concentration on Reminerelization of Carious Enamel: an in vitro pH-Cycling Study, Caries Res, 24, 174-180, 1990). […]

Take sodium chondroitin sulfate: the “tooth remineralizing effect (in words)” value was “little tooth remineralizing effect”.
